From patent US20200157086A1, “BENZAMIDE COMPOUNDS AND THEIR USE AS HERBICIDES” (BASF SE, priority 2017, published 2020)

How the values were obtained:
Test in all cases: post-emergence greenhouse test of herbicidal activity
Assay type in all cases: in vivo
Conditions in all cases: application rate 250 g/ha, 100 = complete destruction, 0 = no damage
[1] = tested on: AMARE (Amaranthus retroflexus)
Source text: (§1) The seeds of the test plants were sown separately for each species. For the post-emergence treatment, the test plants were first grown to a height of 3 to 15 cm, depending on the plant habit, and only then treated with the active ingredients which had been suspended or emulsified in water. For this purpose, the test plants were either sown directly and grown in the same containers, or they were first grown separately as seedlings and transplanted into the test containers a few days prior to treatment. Depending on the species, the plants were kept at 10-25° C. or 20-25° C., respectively. The test period extended over 2 to 4 weeks. During this time, the plants were tended, and their response to the individual treatments was evaluated. Evaluation was carried out using a scale from 0 to 100. 100 means no emergence of the plants, or complete destruction of at least the aerial moieties, and 0 means no damage, or normal course of growth. A good herbicidal activity is given at values of at least 70 and a very good herbicidal activity is given at values of at least 85. At an application rate of 250 g/ha the following compounds were tested in post-emergence tests against: […]

[2] = tested on: CHEAL (Chenopodium album)
Source text: as §1

[3] = tested on: ALOMY (Alopecurus myosuroiedes)
Source text: as §1

[4] = tested on: ECHCG (Echinocloa crus-galli)
Source text: as §1

For `CCN(C)C(=O)Nc1c(Cl)ccc(C(=O)Nc2nnnn2C)c1C` [compound 3, 4-chloro-3-[[ethyl(methyl)carbamoyl]amino]-2-methyl-N-(1-methyltetrazol-5-yl)benzamide], the “herbicidal activity against AMARE, scale from 0 to 100” value [1] was 100, the “herbicidal activity against CHEAL, scale from 0 to 100” value [2] was 100 and the “herbicidal activity against ALOMY, scale from 0 to 100” value [3] was 98. For the same molecule, the “herbicidal activity against ECHCG, scale from 0 to 100” value [4] was 100.
